In patent publication US8617563B2, “Antichlamydial agents” (Duke University, priority 2011, dated 2013):
Where a SMILES comes first, the peptide text is derived from it. [ ]: non-standard residue; d: D form. The star is where a group is joined. 2Abz = Nc1ccccc1C(=O)O; Cbz = O=C(OCc1ccccc1)*; CH2F = FC*

Tests used:
[1] = system: C. muridarum; test: C. muridarum growth in HeLa cells (recovered IFUs); assay type: cell-based; conditions: caspase-1 inhibitor at 2 hpi
Experimental: Cells were infected with an MOI of 1 and treated with CPAF inhibitor (SEQ ID NO:7) or control (SEQ ID NO:11) peptides at 12 hpi, fixed at 24 hpi and analyzed by IF with anti-L2 polyclonal antisera. Inclusion size was determined by measuring the inclusion diameter in μm by confocal microscopy of 50 infected cells. The number of cells with fragmented inclusions was determined by counting the number of infected cells out of 50 with more than one inclusion. (C) Sequence alignment and % sequence identify of full length CPAF and predicted inhibitory peptide sequence between C. trachomatis serovar LGV-L2, Chlamydia muridarum, and Chlamydophila caviae was determined using Geneious software (available at the Geneious website). […] GPIC or C. muridarum infected whole cell protein lysate was preincubated with SEQ ID NO:7 peptide or SEQ ID NO:11 control peptide, mixed with GST-IncC at 37° C., resolved by SDS-PAGE and stained with Coomassie blue. […] Inhibition of C. muridarum (E) and C. ceviae (F) growth was determined by counting the number of recovered IFUs. […] Inclusions were detected by IF with anti-LGV-L2 (A, B, E) antisera or anti-chlamydial LPS (F) monoclonal antibodies, and host nuclei sere detected by staining.

[2] = system: epithelial cells infected with C. trachomatis; test: Host cell death (condensed nuclei) in C. trachomatis infected cells; assay type: cell-based; conditions: caspase inhibitor added before the CPAF inhibitor peptide
Experimental: FIG. 11 depicts (A) that inhibiting CPAF activity induces host cell death. The indicated peptides (anti-CPAF peptide refers to SEQ ID NO:7) were added to infected cells 12 hpi and the percentage of infected cells with condensed nuclei was quantified at the indicated times. (B-C) Inhibition of CPAF activity induces apoptosis. Infected cells were treated with peptides and the percentage of AnnexinV-FITC positive (propidium iodide (PI) negative) was determined by flow cytometry (B). In parallel samples, cleavage of Caspase-3, a hallmark of apoptosome activation, was monitored by immunoblot analysis. Actin and MOMP are host and bacterial loading controls respectively. Staurosporine (2 μM)-treatment was used as a positive control and the pan-caspase inhibitor ZVAD-FMK were used as controls. (D) Cell death is blocked by a pan-Caspase inhibitor. Infected cells were treated as in (A) in the presence or absence of ZVAD-FMK, labeled with PI and analyzed by flow cytometry. Cells pre-treated with ZVAD-FMK and the control peptide lacked PI staining.
FIG. 12 depicts (A) low-magnification view of C. trachomatis LGV-L2 infected HeLa monolayers (30 h) treated with SEQ ID NO:7 or SEQ ID NO:11 peptides. […] HeLa cells infected with C. muridarum were treated with Ac-YVAD-CMK at 2 hpi, SEQ ID NO:7 peptide or SEQ ID NO:11 control peptide at 12 hpi and the percentage of infected cells with condensed nuclei was assessed at 48 hpi (F). […] The percentage of infected cells with condensed nuclei was assessed at 48 hpi (G). […] Cell death in infected and uninfected cells treated with CPAF inhibitory peptides or control peptides was determined by counting the number of condensed nuclei of ˜1000 cells.
FIG. 13 depicts (A) that Caspase-1 inhibitors block Chlamydia-mediated cell death. […] Cells were fixed and the percentage of cells with condensed nuclei determined at 24 hpi. […] Infected cells were labeled with a cell-permeable fluorescent substrate of Caspase-1 and treated with inhibitory peptides, and Caspase-1 activity was monitored by flow cytometry. […]

[3] = molecular target: T1, CPAF (Chlamydia trachomatis serovar D, UniProt O84866); test: HPLC-based CPAF enzyme kinetics with model substrate; assay type: biochemical, C. trachomatis; parameters: 6xHis; made in house; host or cells: E. coli BL21 (DE3), plasmid pET30b-CPAF; conditions: CPAF 62.5 nM, substrate 0-6 mM, 25° C.
Experimental: Proteolytic enzyme kinetics of CPAF were measured using an HPLC-based assay that quantifies the cleavage of an Abz-tagged model CPAF substrate derived from human vimentin:
Standard assays were performed in a total volume of 100 μL containing Assay Buffer (150 mM NaCl, 50 mM Tris pH 7.5), CPAF (62.5 nM), and varying concentrations (0-6 mM) of CPAF substrate (SEQ ID NO:9). Reactions were initiated by the addition of enzyme and incubated at 25° C. for 90 seconds. Incubation was followed by removal of 80 μL aliquots and quenched by the addition of 40 μL 1.2 M HCl. […] Abz-containing peptides were detected by fluorescence emission at 420 nm, and the composition and identity of each product were confirmed by mass spectrometry by LCMS. […] The percentage of substrate converted to product was calculated from the HPLC data by integrating the area under the peaks in the chromatograms using PeakFit v4.11 (available from Systat Software), followed by analysis in Grafit 6.0 (available from Erithacus Software) using the following equation: […]
Target sequence in this assay (O84866 276-601): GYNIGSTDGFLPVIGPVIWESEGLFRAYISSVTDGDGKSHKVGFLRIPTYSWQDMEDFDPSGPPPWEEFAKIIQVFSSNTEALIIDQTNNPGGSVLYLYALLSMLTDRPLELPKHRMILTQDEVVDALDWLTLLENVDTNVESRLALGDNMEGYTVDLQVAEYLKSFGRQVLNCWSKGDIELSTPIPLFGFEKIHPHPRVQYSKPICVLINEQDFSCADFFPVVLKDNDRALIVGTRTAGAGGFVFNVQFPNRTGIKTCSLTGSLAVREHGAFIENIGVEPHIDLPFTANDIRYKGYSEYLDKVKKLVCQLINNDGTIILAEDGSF
Target sequence in this assay (O84866 1-234, added parts left off): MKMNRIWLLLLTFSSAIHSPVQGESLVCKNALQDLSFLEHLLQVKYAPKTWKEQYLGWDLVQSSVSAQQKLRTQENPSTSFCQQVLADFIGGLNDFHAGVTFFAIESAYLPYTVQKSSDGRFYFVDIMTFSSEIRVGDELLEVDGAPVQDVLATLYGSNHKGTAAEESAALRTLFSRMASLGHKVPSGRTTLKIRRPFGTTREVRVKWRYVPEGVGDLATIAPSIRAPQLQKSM

[4] = molecular target: T1, CPAF; assay type: biochemical, C. trachomatis; parameters: 6xHis; made in house; host or cells: E. coli (pET30b); conditions: GST-chlamydial substrates in presence of peptides
Experimental: FIG. 4 depicts (A) Recombinant Chlamydia ORFs were tested for sensitivity to host and bacterial derived proteases. […] Purified his-tagged CPAF was incubated with GST-tagged chlamydial substrates at 37° C. for 20 min with increasing amounts of lactacystin. Cleavage products were run on an SDS PAGE gel and visualized with Coomassie blue staining. (C) Schematic summary of CPAF targets. […] Membranes from Chlamydia-infected HeLa cells were harvested and purified at 0, 24, 36 and 48 hours post-infection, and the abundance of the chlamydial proteins Ct005, IncC and IncD were monitored with specific antibodies. Na/K ATPase and IncG served as host and bacterial-loading controls, respectively.
Cytosols from Chlamydia-infected HeLa cells (40 hrs) or recombinant his-tagged CPAF were pre-treated with rabbit polyclonal anti-CPAF or anti-IncA antisera, and incubated with GST-tagged Chlamydia proteins for 20 min at 37° C. […] Three example proteins shown include a type-III secretion (T3S) core component (CdsQ) a T3S chaperone (Mcsc) and a T3S needle component (Ct584). Processing of recombinant proteins in A-B were monitored by immunoblot analysis with specific antibodies. (C) Protease inhibitor profile of recombinant CPAF. Example shown for the chlamydial substrate GST-IncC. Degradation products were visualized by SDS-PAGE followed by staining with Coomassie blue. […]
Uninfected and HeLa cells pre-infected with L2 for 30 hrs were treated with inhibitory peptides and infected with EBs for 10 min Tarp translocation was indirectly visualized with an anti-phosphotyrosine antibody (A) and quantified by counting 50 separate cells (B). The stability of newly translocated Tarp was assessed by infecting cells as in (A) but with S^35-labeled EBs, followed by sequential immunoprecipitation of Tarp and MOMP and Phosphoimager analysis of precipitated material (C (I-IV)). […] IC50 values were determined by assessing CPAF cleavage of an Abz-tagged CPAF substrate (SEQ ID NO:9) by HPLC. […] Extracellular bacteria were determined. […] The number of internalized EBs was quantified per cell (H). […]
Target sequence in this assay (O84866 1-234, added parts left off): as above
Target sequence in this assay (O84866 276-601): as the sequence (O84866 276-601) above

Compound: CC(=O)N[C@@H](Cc1ccc(O)cc1)C(=O)N[C@H](C(=O)N[C@@H](C)C(=O)N[C@@H](CC(=O)O)C(=O)CCl)C(C)C [Ac-YVAD-CMK, reference compound]
- Rescue of C. muridarum growth defect in cells treated with SEQ ID NO:7 [1]: does not rescue the growth defect
- Block of death of Chlamydia-infected cells treated with SEQ ID NO:7 [2]: efficiently blocked the death

Compound: CC(C)C[C@H](NC(=O)[C@H](CCCNC(=N)N)NC(=O)[C@@H](NC(=O)c1ccccc1N)C(C)C)C(=O)N[C@@H](CCCNC(=N)N)C(=O)N[C@@H](CO)C(=O)N[C@@H](CO)C(=O)N[C@H](C(=O)N1CCC[C@H]1C(=O)NCC(=O)N[C@H](C(N)=O)C(C)C)C(C)C [SEQ ID NO:9, Abz-V-R-L-R-S-S-V-P-G-V-NH2] (H-[2Abz]VRLRSSVPGV-NH2)
- kcat of CPAF proteolysis of model substrate [3]: 13.2 s⁻¹
- Km ([3]; read-out: KM of CPAF proteolysis of model substrate): 880 µM

Compound: COC(=O)C[C@H](NC(=O)[C@H](C)NC(=O)[C@@H](NC(=O)OCc1ccccc1)C(C)C)C(=O)CF [ZVAD-FMK] (Cbz-Val-Ala-Asp(OMe)-CH2F)
- Block of death of Chlamydia-infected cells treated with SEQ ID NO:7 [2]: efficiently blocked the death

Compound: H-NFALSHFRLPLSTYKEMPYVSHWAGRRRRRRRRR-NH2 [SEQ ID NO:11, reference compound]
- Inhibition of degradation of CPAF substrates in vitro [4]: no CPAF inhibitory activity in vitro
